This note sets out measurements from the Deep4Chem optical property database.

Each structure is given as a SMILES string. Several values for one entry are separate records, joined by “and”; a condition that tells them apart may be missing. Equal values may be shown once.

The data set can be described thus: solvent given as SMILES.

Turning to `CC1=CC(c2ccc(N(C)C)cc2)=[N+]2C1=Nc1c(C)cc(-c3ccc(N(C)C)cc3)n1[B-]2(F)F`, the emission maximum runs as follows: (in C1CCOC1) 791 nm; (in CS(C)=O) 822 nm; (in Cc1ccccc1) 779 nm.
As for `Cc1ccc(/C=N/c2cc(C(C)C)c(O)cc2C)cc1`, the emission maximum (in C1CCCCC1) was 400 nm; the emission maximum (in C1CCOC1) worked out at 410 nm; the emission maximum (in C1COCCO1) worked out at 408 nm; the emission maximum (in CC#N) is 415 nm; the emission maximum (in CC(C)(C)O) came to 412 nm; the emission maximum (in CC(C)O) was found to be 416 nm. The emission maximum is given as 402 nm (in CCCCCC); 417 nm (in CCCCO); 417 nm (in CCO); 409 nm (in CCOC(C)=O); 414 nm (in CN(C)C=O); 422 nm (in CO). Further, the emission maximum amounted to 417 nm (in CS(C)=O); 415 nm (in ClC(Cl)Cl); 415 nm (in ClCCl); 441 nm (in O); 425 nm (in OCCO).
In the case of `N#Cc1nn(-c2ccccc2Cl)nc1N1CCCC1`, the emission maximum (in CC#N) came out at 426 nm.
For the setting “in CN(C)C=O”, `C(=C\c1ccc(-c2nnc(-c3ccccc3)o2)cc1)/c1ccc(-c2nnc(-c3ccccc3)o2)cc1` returned an emission maximum of 415 nm.
As for `c1ccc2c(c1)c1ccccc1n2-c1ccc(-c2ccn3nc(-c4ccc(-n5c6ccccc6c6ccccc65)cc4)nc3c2)cc1`, under “in C1CCOC1”, the emission maximum was 413 nm.
`CC(C)(C)NC(=O)c1ccc(F)c2ccc3c4ccccc4c4ccccc4c3c12`: under “in ClCCl”, the emission maximum was found to be 405 nm.
In turn, `Nc1cccc2cc3ccccc3cc12` came in with an emission maximum (in C1CCCCC1) of 487.09 nm.
Turning to `CC(C)[Si](C#Cc1c2cc3ccccc3cc2c(C#C[Si](C(C)C)(C(C)C)C(C)C)c2nc3ccccc3nc12)(C(C)C)C(C)C`, the emission maximum is listed as 699 nm (in CCCCCC) and 738 nm (in ClCCl).
In the case of `CCCCOc1cc(C=C2c3ccccc3-c3ccccc32)c(OCCCC)cc1C=C1c2ccccc2C=Cc2ccccc21`, the emission maximum (in C1CCOC1) was found to be 472 nm.
For `CN(C)c1ccc(C2=CC3=C(c4ccc(C=O)cc4)[C@H]4c5ccccc5[C@]3(S2)c2ccccc24)cc1`, the emission maximum (in ClCCl) is 616 nm.
With `O=Cc1ccc(-c2ccc(O)c(-c3nc4ccccc4s3)c2)s1`, the emission maximum is, setting by setting: (in CCO) 558 nm; (in ClCCl) 553 nm; (in O) 574 nm.
In the case of `COc1ccc(N2c3sc4ccccc4c3Sc3sc4ccccc4c32)cc1`, where the note is “in ClCCl”, the emission maximum is listed as 562 nm.
`CC1(C)c2ccccc2N(c2ccc(-c3cc(-c4ccccc4)nc(-c4ccccc4)n3)cc2)c2ccccc21`: the emission maximum (in Cc1ccccc1) came to 475.6 nm.
With `Cc1ccc(O)c(-c2[nH]c(=O)n3c2-c2ccccc2C3=O)c1`, the emission maximum is, setting by setting: (in CC#N) 480 nm; (in CO) 500 nm; (in ClCCl) 475 nm.
On to `C(=C1c2ccccc2CCc2ccccc21)c1ccc(-c2ccc(C=C3c4ccccc4CCc4ccccc43)cc2)cc1`, for which, for the setting “in C1CCOC1”, the emission maximum was determined as 394 nm.
In the case of `CC1=[N+]2C(=C(c3ccc(N4CCCCC4)cc3)c3ccc(C)n3[B-]2(F)F)C=C1`, the emission maximum (in C1CCCCC1) is on record as 519 nm; the emission maximum (in C1CCOC1) was 527 nm and 514 nm; the emission maximum (in CC#N) is listed as 519 nm; the emission maximum (in CC(=O)C(C)(C)C) is 523 nm; the emission maximum (in CC(C)=O) is 517 nm; the emission maximum (in CCCCCC) is listed as 520 nm. Also, the emission maximum by setting is: (in CCOC(C)=O) 518 nm; (in CO) 518 nm; (in Cc1ccccc1) 593 nm; (in ClC(Cl)Cl) 527 nm.
As for `Cn1c(/C=C/c2ccc(/C=C/c3nc4ccccc4[nH]3)cc2)[n+](C)c2ccccc21`, the emission maximum runs as follows: (in C1CCOC1) 576 nm; (in CC#N) 576 nm; (in CC(C)=O) 580 nm; (in CN(C)C=O) 582 nm; (in CO) 567 nm; (in CS(C)=O) 584 nm. This compound also gave an emission maximum (in O) of 574 nm.
`CCCCCCN1C(=O)c2cccc3c(-c4ccc(-c5cc(-c6ccc(Cl)cc6)nn5-c5ccccc5)s4)ccc(c23)C1=O` yielded an emission maximum (in ClCCl) of 519 nm.
In turn, `C[Si](C)(C)C#C[Si](c1c2ccccc2cc2ccccc12)(c1c2ccccc2cc2ccccc12)c1c2ccccc2cc2ccccc12` showed an emission maximum (in ClC(Cl)Cl) of 438 nm.
In turn, `Clc1ccc(-c2nc(-c3ccccc3)c(N(c3ccccc3)c3ccccc3)s2)cc1` came in with an emission maximum (in ClC(Cl)Cl) of 474 nm.
`c1ccc2c(c1)nc1ccccn12` gave an emission maximum (in CC#N) of 414 nm.
In turn, `COc1cc2c(cc1OC)C1=C[C@H](c3ccc(Cl)cc3)C3(C(C#N)=C(C#N)N1CC2)c1cc(Br)ccc1-c1ccc(Br)cc13` displayed an emission maximum (in ClCCl) of 420 nm.
`Cn1c(=O)c(/N=N/c2cc(S(=O)(=O)O)ccc2C(=O)O)c(O)c2ccccc21`: the emission maximum (in C1CCOC1) worked out at 523 nm; the emission maximum (in CC(C)=O) stood at 538 nm; the emission maximum (in CCOC(C)=O) turned out to be 528 nm; the emission maximum (in CO) amounted to 532 nm; the emission maximum (in CS(C)=O) is on record as 486 nm; the emission maximum (in Cc1ccccc1) is 509 nm. Moreover, the emission maximum came out at 516 nm (in ClCCl) and 553 nm (in O).
`Fc1nc(F)c(F)c(C#Cc2cc3c(cc2C#Cc2c(F)c(F)nc(F)c2F)OC2(CCCCC2)O3)c1F` gave an emission maximum (in CC#N) of 460 nm.
In the case of `O=C(O)c1cc(O)c(O)c(O)c1`, the emission maximum (in O) came to 341 nm.
For the compound `c1cc2ccc3cccc4c(-c5cc(-c6nccs6)nc(-c6nccs6)c5)cc(c1)c2c34`, the emission maximum is listed as 458 nm (in CC#N), 392 nm (in CCCCCC), 483 nm (in CO) and 439 nm (in ClC(Cl)Cl).
As for `Cc1c(C(=O)c2ccc(C(F)(F)F)cc2)c2ccc3cccc4c5cccc6ccc1c(c65)c2c34`, the emission maximum (in ClCCl) is 545 nm.
In the case of `CCN(CC)c1ccc2cc(-c3csc(N)c3C#N)c(=O)oc2c1`, the emission maximum reads like this: (in C1CCOC1) 458 nm; (in CO) 514 nm; (in CS(C)=O) 482 nm; (in Cc1ccccc1) 447 nm; (in ClCCl) 464 nm.
With `CCOC(=O)/N=c1/oc2cc(OC)cc(OC)c2cc1C#N`, for the setting “in ClCCl”, the emission maximum is given as 442 nm.
Compound `c1ccc(-n2c(-c3ccc(-c4ccc5c(c4)C4(c6ccccc6-5)c5ccccc5-c5ccc(-c6ccc(-c7nc8ccccc8n7-c7ccccc7)cc6)c6cccc4c56)cc3)nc3ccccc32)cc1` (stereo not given) registered an emission maximum (in ClC(Cl)Cl) of 440 nm.
`CC1(C)C(/C=C/C=C/C=C/C=C2/N(CCCCS(=O)(=O)[O-])c3ccc4ccccc4c3C2(C)C)=[N+](CCCCS(=O)(=O)[O-])c2ccc3ccccc3c21` showed an emission maximum (in CO) of 817 nm.
In the case of `COc1cccc(OC)c1-c1c2ccc(=[N+]3CCN(C(=O)OC(C)(C)C)CC3)cc-2oc2cc(N3CCN(C(=O)OC(C)(C)C)CC3)ccc12`, the emission maximum (in ClCCl) is given as 580 nm.
Consider `CC(C)(C)c1ccc(C2=c3c(c4ccc(C(C)(C)C)cc4c4cc(C(C)(C)C)ccc34)=[N+]3C2=C(c2ccccc2)c2c(-c4ccc(C(C)(C)C)cc4)c4c5ccc(C(C)(C)C)cc5c5cc(C(C)(C)C)ccc5c4n2[B-]3(F)F)cc1`, for which the emission maximum runs as follows: (in C1CCCCC1) 711 nm; (in C1CCOC1) 712 nm; (in CC#N) 706 nm; (in Cc1ccccc1) 714 nm; (in ClCCl) 712 nm.
The compound `COc1nc(Cl)nc(Nc2ccc3c4cccc5cccc(c6cccc2c63)c54)n1` registered an emission maximum (in C1COCCO1) of 479 nm, an emission maximum (in CC#N) of 482 nm, an emission maximum (in CCCCOCCCC) of 477 nm and an emission maximum (in CCOC(C)=O) of 477 nm.
Regarding `Oc1ccccc1-c1nc2ccccc2s1`, the emission maximum was 373 nm (in CCO), 396 nm (in ClCCl) and 463 nm (in O).
As for `NCc1ccc2ccc3cccc4ccc1c2c34`, the emission maximum is 375 nm (in C1CCCCC1), 375 nm (in CC#N), 375 nm (in CO) and 376 nm (in ClC(Cl)Cl).
As for `COC(=O)c1ccc(-c2ccc(-c3nnc(-c4ccc(-c5nnc(-c6ccc(-c7ccc(C(=O)OC)cc7)s6)o5)cc4)o3)s2)cc1`, the emission maximum reads like this: (in C1COCCO1) 400 nm; (in CC#N) 400 nm; (in CC(=O)N(C)C) 417 nm; (in CCCCCCCCCCO) 408 nm; (in CCCCCCCCO) 399 nm; (in CCCCCCO) 389 nm. The emission maximum amounted to 394 nm (in CCCCO); 400 nm (in CCO); 420 nm (in CS(C)=O); 399 nm (in Cc1ccccc1); 397 nm (in ClC(Cl)Cl).
With `Cc1ccc2c(c1)C1(c3ccccc3-c3ccccc31)c1cc(C)ccc1N2c1ccc2c(c1)Oc1ccccc1P2(=S)c1ccccc1` (stereo not given), the emission maximum (in Cc1ccccc1) worked out at 443.09 nm.
`CCCCCCCCCCCCN1C(=O)c2c(c3ccc4cc(-c5ccc(C)cc5)c(OC)cc4c3c3c2ccc2cc(-c4ccc(C)cc4)c(OC)cc23)C1=O`: the emission maximum (in ClCCl) amounted to 529 nm.
Take `Cc1ccc(/C2=c3\cc/c(o3)=C(\c3ccc(C)cc3)c3ccc([nH]3)-c3ccc4n3[P-](=O)(=O)[N+]3=C(C=CC3=C4c3ccco3)c3ccc2[nH]3)cc1`: the emission maximum (in ClC(Cl)Cl) is on record as 744 nm.
For the compound `CC(C)(C)c1ccc(-c2nc3ccccc3nc2-c2cc(-c3nc4ccccc4nc3-c3ccc(C(C)(C)C)cc3)cc(-n3c4ccccc4c4ccccc43)c2)cc1`, for the setting “in Cc1ccccc1”, the emission maximum is reported as 437 nm.
Under “in CS(C)=O”, `Brc1ccc(-c2nc3sc4ccccc4c3s2)cc1` displayed an emission maximum of 420 nm.
Compound `COc1cc(OC)c2c(c1)C(=O)c1cc(OC)cc(OC)c1-2` displayed an emission maximum (in C1CCCCC1) of 585 nm.
Compound `C[P+]1(c2ccccc2)C2=C(c3ccccc31)S(=O)(=O)c1ccccc12` (stereo not given) registered an emission maximum (in CC#N) of 479 nm, an emission maximum (in CCO) of 419 nm and an emission maximum (in ClCCl) of 483 nm.
